Like-named read-outs stand apart in the source and are kept apart here.
Columns and labels:
[1] = molecular target: T1, HCV polymerase (NS5B570n-Con1) (Hepatitis C virus genotype 1b, UniProt Q9WMX2); assay: biochemical; parameters: species or system HCV Con1 strain;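 further: recombinant His-tagged enzyme from E. coli, radiolabeled nucleotide incorporation into acid-insoluble RNA read by scintillation after filtration, no-enzyme background subtracted, activity relative to positive control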
T1 construct: contains a 21 amino acid deletion at the C-terminus relative to the full-length HCV polymerase; 6-histidine (N); made in house; host or cells: E. coli strain BL21(DE) pLysS (pET17b)

[2] = IC50 HCV NS5B RNA Polymerase Assay, values without asterisk, 20 nM NS5B570n-Con1 enzyme, 20 nM cIRES RNA template
[3] = IC50 HCV NS5B RNA Polymerase Assay (values with asterisk), values with asterisk: cIRES RNA template, 3 nM NS5B570n-Con1

| Compound | IC50 [1, 2] [nM] | also measured |
| --- | --- | --- |
| COc1c(CCc2ccc(NS(C)(=O)=O)cn2)cc(-c2ccc[nH]c2=O)cc1C(C)(C)C [I-124] | 3 | melting point: 131 to 133 °C |
| CC(C)(C)c1cc(CCc2ccc(NS(C)(=O)=O)cc2)c(OCCO)c(-c2ccc[nH]c2=O)c1 [I-118, N-(4-{2-[5-tert-Butyl-2-(2-hydroxy-ethoxy)-3-(2-oxo-1,2-dihydro-pyridin-3-yl)-phenyl]-ethyl}-phenyl)-methanesulfonamide] | 15 | melting point: 223 to 225 °C |
| COc1c(NC(=O)c2ccc(NS(C)(=O)=O)c(F)c2)cc(-c2ccc[nH]c2=O)cc1C(C)(C)C [I-121] | 7 | melting point: 270 to 272 °C |
| CC(C)(C)c1cc(-c2ccccc2)c(O)c(-c2ccc[nH]c2=O)c1 [I-15] | 2920 | melting point: 235.8 to 237 °C |
| COc1c(C(=O)c2ccc(F)cc2)cc(-c2ccc[nH]c2=O)cc1C(C)(C)C [I-50] | 52 | melting point: 203 to 205 °C |
| CC(C)(C)c1cc(CCc2ccc(NS(C)(=O)=O)cc2)cc(-c2ccc[nH]c2=O)c1 [I-74] | 25 | melting point: 211 to 213 °C |
| COc1ccc(-c2ccc[nH]c2=O)c(F)c1C(C)(C)C [I-56, 3-(3-tert-Butyl-2-fluoro-4-methoxy-phenyl)-1H-pyridin-2-one] | 136 | melting point: 164.5 to 166 °C |
| COc1c(C(=O)Nc2ccc(CNS(C)(=O)=O)cc2)cc(-c2ccc[nH]c2=O)cc1C(C)(C)C [I-76] | 62 | melting point: 213 to 216 °C |
| CCOc1cc(NS(C)(=O)=O)ccc1C(=O)Nc1cc(-c2ccc[nH]c2=O)cc(C(C)(C)C)c1OC [I-115] | 9 | melting point: 290 to 292 °C |
| COc1c(/C=C/c2ccc(NS(C)(=O)=O)cc2)cc(-c2cc(F)cn(COP(=O)(O)O)c2=O)cc1C(C)(C)C | – | melting point: 175 to 178 °C |
| COc1c(/C=C/c2ccc(NS(C)(=O)=O)cc2)cc(-c2cc(F)cn(COC(=O)[C@@H](N)C(C)C)c2=O)cc1C(C)(C)C | – | melting point: 188 to 190 °C |
| COc1c(/C=C/c2ccc(NS(=O)(=O)CCCN3CCCC3)cc2)cc(-c2ccc(C)[nH]c2=O)cc1C(C)(C)C [I-235, 3-Pyrrolidin-1-yl-propane-1-sulfonic acid (4-{(E)-2-[3-tert-butyl-2-methoxy-5-(6-methyl-2-oxo-1,2-dihydro-pyridin-3-yl)-phenyl]-vinyl}-phenyl)-amide] | – | IC50 [1, 3]: 12 nM |
| COc1c(C(=O)Nc2cccc(NS(C)(=O)=O)c2)cc(-c2ccc[nH]c2=O)cc1C(C)(C)C [I-259, 3-tert-Butyl-N-(3-methanesulfonylamino-phenyl)-2-methoxy-5-(2-oxo-1,2-dihydro-pyridin-3-yl)-benzamide] | 122 | – |
| COc1c(/C=C/c2ccccc2C(F)(F)F)cc(-c2ccc[nH]c2=O)cc1C(C)(C)C [I-239, 3-{3-tert-Butyl-4-methoxy-5-[(E)-2-(2-trifluoromethyl-phenyl)-vinyl]-phenyl}-1H-pyridin-2-one] | – | IC50 [1, 3]: 8 nM |
| COc1c(/C=C/c2ccc(NS(=O)(=O)CCN3CCCC3)cc2)cc(-c2cc(F)c[nH]c2=O)cc1C(C)(C)C [I-232, 2-Pyrrolidin-1-yl-ethanesulfonic acid (4-{(E)-2-[3-tert-butyl-5-(5-fluoro-2-oxo-1,2-dihydro-pyridin-3-yl)-2-methoxy-phenyl]-vinyl}-phenyl)-amide] | – | IC50 [1, 3]: 1 nM |
| COc1c(CC(C(N)=O)c2ccc(NS(C)(=O)=O)cc2)cc(-c2ccc[nH]c2=O)cc1C(C)(C)C (stereo not drawn) [I-178] | 15 | – |
| C/C(=C\c1cc(C(C)(C)C)cc(-c2ccc[nH]c2=O)c1O)c1ccc(NS(C)(=O)=O)cc1 [I-143] | 308 | – |
| COc1c(C(=O)NCc2ccc(N(C)C)cc2)cc(-c2ccc[nH]c2=O)cc1C(C)(C)C [I-40] | 1600 | – |
| COc1c(C(C)(C)C)cc(-c2ccc[nH]c2=O)c(O)c1CCc1ccc(NS(C)(=O)=O)cc1 [I-218, N-(4-{2-[3-tert-Butyl-6-hydroxy-2-methoxy-5-(2-oxo-1,2-dihydro-pyridin-3-yl)-phenyl]-ethyl}-phenyl)-methanesulfonamide] | 8 | – |
| COc1c(/C=C/c2ccccn2)cc(-c2ccc[nH]c2=O)cc1C(C)(C)C [I-241, 3-[3-tert-Butyl-4-methoxy-5-((E)-2-pyridin-2-yl-vinyl)-phenyl]-1H-pyridin-2-one] | – | IC50 [1, 3]: 3 nM |
| COc1c(/C=C/c2ccccc2S(C)(=O)=O)cc(-c2ccc[nH]c2=O)cc1C(C)(C)C [I-244, 3-{3-tert-Butyl-5-[(E)-2-(2-methanesulfonyl-phenyl)-vinyl]-4-methoxy-phenyl}-1H-pyridin-2-one] | – | IC50 [1, 3]: 1 nM |
| CS(=O)(=O)Nc1ccc(/C=C/c2cc(-c3ccc[nH]c3=O)cc(C3(CO)CC3)c2)cc1 | – | melting point: 148 to 150 °C |
| COc1c(/C=C/c2ccc(NS(=O)(=O)CCN3CCOCC3)cc2)cc(-c2cc(F)c[nH]c2=O)cc1C(C)(C)C [I-233] | – | IC50 [1, 3]: 1 nM |

| Compound | IC50 [1, 2] [nM] | also measured |
| --- | --- | --- |
| COCc1cc(NS(C)(=O)=O)ccc1/C=C/c1cc(-c2ccc[nH]c2=O)cc(C(C)(C)C)c1OC [I-206, N-(4-{E-2-[3-tert-Butyl-2-methoxy-5-(2-oxo-1,2-dihydro-pyridin-3-yl)-phenyl]-vinyl}-3-methoxymethyl-phenyl)-methanesulfonamide] | – | IC50 [1, 3]: 2 nM |
| COC(=O)c1ccccc1/C=C/c1cc(-c2ccc[nH]c2=O)cc(C(C)(C)C)c1OC [I-242, 2-{(E)-2-[3-tert-Butyl-2-methoxy-5-(2-oxo-1,2-dihydro-pyridin-3-yl)-phenyl]-vinyl}-benzoic acid methyl ester] | – | IC50 [1, 3]: 2 nM |
| COc1c(/C=C/c2ccc(NS(C)(=O)=O)nn2)cc(-c2cc(F)c[nH]c2=O)cc1C(C)(C)C [I-184] | – | IC50 ([1]; read-out: IC50 HCV NS5B RNA Polymerase Assay, values without asterisk, 20 nM NS5B570n-Con1 enzyme, 20 nM cIRES RNA template): 4 nM |
| COCCOc1cc(NS(C)(=O)=O)ccc1C(=O)Nc1cc(-c2ccc[nH]c2=O)cc(C(C)(C)C)c1OC [I-276, N-[3-tert-Butyl-2-methoxy-5-(2-oxo-1,2-dihydro-pyridin-3-yl)-phenyl]-4-methanesulfonylamino-2-(2-methoxy-ethoxy)-benzamide] | 20 | – |
| COc1c(/C=C/c2ccc(NS(C)(=O)=O)cc2COCCC(C)(C)O)cc(-c2cc(F)c[nH]c2=O)cc1C(C)(C)C [I-219, N-[4-{(E)-2-[3-tert-Butyl-5-(5-fluoro-2-oxo-1,2-dihydro-pyridin-3-yl)-2-methoxy-phenyl]-vinyl}-3-(3-hydroxy-3-methyl-butoxymethyl)-phenyl]-methanesulfonamide] | – | IC50 [1, 3]: 4 nM |
| COc1c(/C=C/c2ccc(NS(C)(=O)=O)nc2)cc(-c2cc(F)c[nH]c2=O)cc1C(C)(C)C [I-175] | 6 | – |
| COc1c(NC(=O)c2ccc(N)cc2OCCN(C)C)cc(-c2ccc[nH]c2=O)cc1C(C)(C)C [I-284] | 6270 | – |
| COc1c(/C=C/c2ccc(NS(=O)(=O)C3CC3)cc2)cc(-c2cc(F)c[nH]c2=O)cc1C(C)(C)C [I-155, Cyclopropanesulfonic acid (4-{(E)-2-[3-tert-butyl-5-(5-fluoro-2-oxo-1,2-dihydro-pyridin-3-yl)-2-methoxy-phenyl]-vinyl}-phenyl)-amide] | 3 | – |
| COc1c(C(=O)Nc2ccc(N(C)C)cc2)cc(-c2ccc[nH]c2=O)cc1C(C)(C)C [I-41] | 1510 | – |
| COc1c(NC(=O)c2ccc(N)cc2C(F)(F)F)cc(-c2ccc[nH]c2=O)cc1C(C)(C)C [I-279] | 104 | – |
| COc1c(/C=C/c2ccc(NS(C)(=O)=O)cn2)cc(-c2ccc[nH]c2=O)cc1C(C)(C)C | – | melting point: 293 to 295 °C |
| COc1c(/C=C/c2ccc(NS(C)(=O)=O)cc2)cc(-c2ccc[nH]c2=O)cc1C(C)(O)C(F)(F)F (stereo not drawn) [I-180] | 5 | – |
| CCc1ccc(-c2cc(C(C)(C)C)ccc2OC)c(=O)[nH]1 [I-105, 3-(5-tert-Butyl-2-methoxy-phenyl)-6-ethyl-1H-pyridin-2-one] | 6350 | – |
| COCCNc1ccc(C(=O)Nc2cc(-c3ccc[nH]c3=O)cc(C(C)(C)C)c2OC)cc1 [I-257, N-[3-tert-Butyl-2-methoxy-5-(2-oxo-1,2-dihydro-pyridin-3-yl)-phenyl]-4-(2-methoxy-ethylamino)-benzamide] | 184 | – |
| COc1c(C(=O)NCCc2ccccc2)cc(-c2ccc[nH]c2=O)cc1C(C)(C)C [I-34] | 1700 | – |
| COc1c(CCc2ccc(NS(C)(=O)=O)cc2)cc(-c2cc(Cl)c[nH]c2=O)cc1C(C)(C)C [I-95, N-(4-{2-[3-tert-Butyl-5-(5-chloro-2-oxo-1,2-dihydro-pyridin-3-yl)-2-methoxy-phenyl]-ethyl}-phenyl)-methanesulfonamide] | 17 | – |
| COc1c(NC(=O)c2ccc(NCC(F)(F)F)cc2)cc(-c2ccc[nH]c2=O)cc1C(C)(C)C [I-253, N-[3-tert-Butyl-2-methoxy-5-(2-oxo-1,2-dihydro-pyridin-3-yl)-phenyl]-4-(2,2,2-trifluoro-ethylamino)-benzamide] | 2 | – |
| COc1c(NC(=O)c2ccc(NS(C)(=O)=O)cc2C)cc(-c2ccc[nH]c2=O)cc1C(C)(C)C [I-282] | 13 | – |
| COC(=O)c1cc(NS(C)(=O)=O)ccc1/C=C/c1cc(-c2cc(F)c[nH]c2=O)cc(C(C)(C)C)c1OC [I-186] | – | IC50 [1, 3]: 4 nM |
| COc1c(/C=C/c2ccc(NS(C)(=O)=O)cc2)cc(-c2ccc[nH]c2=O)cc1C(C)(C)OC [I-289, N-(4-{(E)-2-[2-Methoxy-3-(1-methoxy-1-methyl-ethyl)-5-(2-oxo-1,2-dihydro-pyridin-3-yl)-phenyl]-vinyl}-phenyl)-methanesulfonamide] | – | IC50 [1, 3]: 2 nM |
| COc1c(C(=O)N2CCCC(CO)C2)cc(-c2ccc[nH]c2=O)cc1C(C)(C)C (stereo not drawn) [I-24] | 1530 | – |
| COc1c(/C=C/c2ccc(NS(C)(=O)=O)cc2CNC(C)=O)cc(-c2ccc[nH]c2=O)cc1C(C)(C)C [I-160, N-(2-{(E)-2-[3-tert-Butyl-2-methoxy-5-(2-oxo-1,2-dihydro-pyridin-3-yl)-phenyl]-vinyl}-5-methanesulfonylamino-benzyl)-acetamide] | 4 | – |
